# Test results: ChEMBL document CHEMBL1201862, “PubChem BioAssay data set” (2004)
#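 Cells were grown in 96-well plates and exposed to each compound for 48 hours at five concentrations; endpoints were interpolated linearly between bracketing concentrations, or set to the highest concentration if not reached. At the GI50, growth is halved.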 The source made the active and inactive calls. Cut-off read from the data, not from the text of the source: active = GI50 up to about 1.1 µM and inactive = higher.
# Assays:
# Experiment in all cases: DTP human tumour cell line panel, 48 h
# [1] = system: OVCAR-4
# [2] = system: U-251
# [3] = system: RPMI-8226
# [4] = system: HCC 2998
# [5] = system: SR
# [6] = system: SF-295
# [7] = system: OVCAR-8
# [8] = system: HOP-62
# [9] = system: LOX IMVI
# [10] = system: BT-549
# [11] = system: HCT-116
# [12] = system: NCI-H522
# [13] = system: NCI/ADR-RES
# [14] = system: HOP-92
# [15] = system: SW-620
# [16] = system: HL-60
# [17] = system: UACC-62
# [18] = system: A498
# [19] = system: NCI-H23
# [20] = system: TK-10
# [21] = system: MDA-MB-435
# [22] = system: MDA-N
# [23] = system: MDA-MB-231
# [24] = system: OVCAR-3
# [25] = system: EKVX
# [26] = system: HCT-15
# [27] = system: PC-3
# [28] = system: 786-0
# [29] = system: SF-539
# [30] = system: SNB-19
# [31] = system: SK-MEL-2
# [32] = system: NCI-H460
# [33] = system: IGROV-1
# [34] = system: K562
# [35] = system: SK-OV-3
# [36] = system: NCI-H226
# [37] = system: KM12
# [38] = system: MCF7
# [39] = system: ACHN
# [40] = system: CCRF-CEM
# [41] = system: SK-MEL-5
# [42] = system: UO-31
# [43] = system: HT-29
# [44] = system: SN12C
# [45] = system: OVCAR-5
# [46] = system: M14
# [47] = system: CAKI-1
# [48] = system: UACC-257
# [49] = system: SK-MEL-28
# [50] = system: A549
# [51] = system: COLO 205
# [52] = system: SF-268
# [53] = system: Hs-578T
# [54] = system: Malme-3M
# [55] = system: DU-145
# [56] = system: SNB-75
smiles,measurement,setting,value
NC(=O)SCC(=O)Nc1ccc2ncccc2c1,GI50,[1],> 100 µM (inactive)
same,GI50,[2],21.5 µM (inactive)
same,GI50,[3],23.6 µM (inactive)
same,GI50,[4],> 100 µM (inactive)
same,GI50,[5],49 µM (inactive)
same,GI50,[6],53.2 µM (inactive)
same,GI50,[7],> 100 µM (inactive)
same,GI50,[8],> 100 µM (inactive)
same,GI50,[9],31.6 µM (inactive)
same,GI50,[10],74.5 µM (inactive)
same,GI50,[11],> 100 µM (inactive)
same,GI50,[12],27.7 µM (inactive)
same,GI50,[13],> 100 µM (inactive)
same,GI50,[14],35.2 µM (inactive)
same,GI50,[15],> 100 µM (inactive)
same,GI50,[16],> 100 µM (inactive)
same,GI50,[17],46.2 µM (inactive)
same,GI50,[18],> 100 µM (inactive)
same,GI50,[19],> 100 µM (inactive)
same,GI50,[20],54.7 µM (inactive)
same,GI50,[21],48.3 µM (inactive)
same,GI50,[22],61.5 µM (inactive)
same,GI50,[23],> 100 µM (inactive)
same,GI50,[24],35.5 µM (inactive)
same,GI50,[25],> 100 µM (inactive)
same,GI50,[26],55.1 µM
same,GI50,[27],64.9 µM (inactive)
same,GI50,[28],26.8 µM (inactive)
same,GI50,[29],28.1 µM (inactive)
same,GI50,[30],40.6 µM (inactive)
same,GI50,[31],46.8 µM (inactive)
same,GI50,[32],85.3 µM (inactive)
same,GI50,[33],> 100 µM (inactive)
same,GI50,[34],36.1 µM (inactive)
same,GI50,[35],> 100 µM (inactive)
same,GI50,[36],> 100 µM (inactive)
same,GI50,[37],45.4 µM (inactive)
same,GI50,[38],46.8 µM (inactive)
same,GI50,[39],> 100 µM (inactive)
same,GI50,[40],29.6 µM (inactive)
same,GI50,[41],43.4 µM (inactive)
same,GI50,[42],> 100 µM (inactive)
same,GI50,[43],> 100 µM (inactive)
same,GI50,[44],56 µM (inactive)
same,GI50,[45],> 100 µM (inactive)
same,GI50,[46],> 100 µM (inactive)
same,GI50,[47],> 100 µM (inactive)
same,GI50,[48],71.3 µM (inactive)
same,GI50,[49],> 100 µM (inactive)
same,GI50,[50],> 100 µM (inactive)
same,GI50,[51],> 100 µM (inactive)
same,GI50,[52],49.1 µM (inactive)
same,GI50,[53],67.3 µM (inactive)
same,GI50,[54],56.1 µM (inactive)
COc1cc(NC(C)CCCN)c2nccc(C)c2c1 (stereo unspecified),GI50,[1],21.8 µM (inactive)
same,GI50,[2],19.6 µM (inactive)
same,GI50,[3],20.9 µM (inactive)
same,GI50,[4],19.9 µM (inactive)
same,GI50,[5],19.7 µM (inactive)
same,GI50,[6],15.3 µM (inactive)
same,GI50,[8],17.1 µM (inactive)
same,GI50,[55],48.3 µM (inactive)
same,GI50,[10],15.8 µM (inactive)
same,GI50,[11],15.8 µM (inactive)
same,GI50,[12],17.5 µM (inactive)
same,GI50,[13],11.6 µM (inactive)
same,GI50,[14],24.9 µM (inactive)
same,GI50,[16],2.81 µM (inactive)
same,GI50,[17],19.9 µM (inactive)
same,GI50,[19],38 µM (inactive)
same,GI50,[20],26.8 µM (inactive)
same,GI50,[21],16.7 µM (inactive)
same,GI50,[22],18.9 µM (inactive)
same,GI50,[23],> 10 µM (inactive)
same,GI50,[24],23.1 µM (inactive)
same,GI50,[25],55.3 µM (inactive)
same,GI50,[26],21.3 µM
same,GI50,[56],14.2 µM (inactive)
same,GI50,[28],19 µM (inactive)
same,GI50,[29],17.5 µM (inactive)
same,GI50,[30],27 µM (inactive)
same,GI50,[31],19.2 µM (inactive)
same,GI50,[32],22.3 µM (inactive)
same,GI50,[33],16.5 µM (inactive)
same,GI50,[35],28.4 µM (inactive)
same,GI50,[37],17.5 µM (inactive)
same,GI50,[38],16.2 µM (inactive)
same,GI50,[39],26.6 µM (inactive)
same,GI50,[41],25.7 µM (inactive)
same,GI50,[42],15.6 µM (inactive)
same,GI50,[43],31.9 µM (inactive)
same,GI50,[44],31.4 µM (inactive)
same,GI50,[45],96.4 µM (inactive)
same,GI50,[46],18.9 µM (inactive)
same,GI50,[47],21.2 µM (inactive)
same,GI50,[49],19.5 µM (inactive)
same,GI50,[50],55.7 µM (inactive)
same,GI50,[51],14.3 µM (inactive)
same,GI50,[52],24.3 µM (inactive)
same,GI50,[53],26.8 µM (inactive)
same,GI50,[54],20 µM (inactive)
